Data taken from patent US20140158233A1, “AEROSOL DELIVERY TO A MICROFLUIDIC DEVICE” (PRESIDENT AND FELLOWS OF HARVARD COLLEGE, priority 2011, published 2014).

Test system: human alveolar epithelial cells (A549)
Experiment: Aerosol delivery of a model agent to cells in a lung-on-a-chip (cell uptake, time-course fluorescence images)
Format: cell-based
Conditions: 50 micromolar fluorescein sodium in isotonic PBS, nebulized droplets, flow ~20 mL/hr into top channel; confluent A549 monolayer at air interface; images 0-10 min (FIGS. 14A-14D)
Excerpt: In accordance with some embodiments described herein, an agent can be aerosolized and directed to a microfluidic channel for delivery of the agent to a cell. In some embodiments, the microfluidic channel can be present in a lung-on-a-chip device as described earlier. By way of example only, to evaluate efficacy of aerosol delivery to and/or deposition on a cell using one or more embodiments of the aerosol delivery device described herein, a monolayer of human alveolar epithelial cells (A549) was grown to confluence on the top side of a porous membrane of the lung-on-a-chip, for example, the one described in the International Patent Application WO 2010/009307, the content of which is incorporated herein by reference. In some embodiments, no cells were seeded on the bottom side of the membrane. […] In some embodiments, at least the top channel inlet port 1310 of the lung-on-a-chip 1300 can be modified to include an inertial impactor as described herein. […] The microchannel 142 (in fluid communication with the chamber 150) and the porous membrane 160 can be directly or indirectly connected to the top channel 1320 and the porous membrane 1340 of the lung-on-a-chip 1300. […]

Q: `O=C1OC2(c3ccc(O)cc3Oc3cc(O)ccc32)c2ccccc21` [fluorescein, fluorescein sodium] was tested. Which “cell uptake of aerosolized fluorescein after deposition on the cells” value did it give?
A: taken up by the cells
